Measured values from US20240300924A1, “PYRAZOLE DERIVATIVE COMPOUND, ADHESIVE COMPOSITION COMPRISING SAME, AND ADHESIVE FILM COMPRISING SAME” (LG CHEM, LTD., priority 2021, published 2024).
Entries after “also recorded” stand apart in the source; their conditions may differ.

Tests used:
Format in all cases: physicochemical
[1] = Moisture resistance of adhesive film sample (change in transmittance ΔT); conditions: ΔT of transmittance for light of 390 to 450 nm, 60° C., 90% RH for 500 hours
From the text: (§1) Based on 100 parts by weight a solid content except for a solvent in an adhesive composition, 95.4 parts by weight of an adhesive material (AD-701 solid content, LG Chem.), 0.29 part by weight of Compound P1, 0.1 part by weight of an isocyanate-based cross-linking agent (T39M, Soken Chemical & Engineering Co., Ltd.), 0.2 part by weight of a silane-based coupling agent (T-789J, Soken Chemical & Engineering Co., Ltd.), 0.5 part by weight of an antioxidant (Kinox-80, Hannong Chemicals Inc.), 1.5 parts by weight of an antistatic agent (FC-4400, 3M), 2 parts by weight of a hindered amine light stabilizer (Tinuvin 123, BASF SE), and 0.001 part by weight of a catalyst (dibutyltin dilaurate, Sigma-Aldrich) were added to the adhesive composition, the solvent (methyl ethyl ketone, MEK) was added thereto in an amount of 25 parts by weight based on the total parts by weight of the adhesive composition, and a release layer (PET) was coated with the adhesive composition mixed using a mixer (Shaker, SKC 6100, JEIO Tech.) to have a thickness of 22 μm to 23 μm using a knife bar coating apparatus (KP-3000, Kipae E&T Co., Ltd.), thereby preparing an adhesive film. After coating, the release layer was removed, and the adhesive film and a binder resin film (TAC: cellulose triacetate) were sequentially laminated on glass through lamination, thereby producing a sample.
(§2) The maximum absorption wavelength λmax (nm) of each of the adhesive composition and the adhesive film was measured using a UV-vis apparatus (Shimazu UV-3600). In addition, the transmittance of the sample for light with a wavelength of 390 to 450 nm was measured by the UV-vis apparatus (Shimazu UV-3600). Under conditions of light fastness 55,600 lx*48 hours; under conditions of heat resistance 80° C. and for 500 hours; or under conditions of moisture resistance 60° C., 90% RH and for 500 hours, the sample was each exposed, and then the transmittance for light with a wavelength of 390 to 450 nm was re-measured. ΔT was calculated by dividing the value obtained by […] by the transmittance value immediately after the sample was produced, and the results under the evaluation conditions are shown in Table 1. Furthermore, the transmittance of the sample for light in a region with a wavelength of 450 nm or more was measured by the UV-vis apparatus (Shimazu UV-3600). Further, the solubility of Compound p1 to methyl ethyl ketone (MEK) was measured under conditions of 1 atm and room temperature.
(§3) ΔT (%)={(transmittance measured immediately after the optical film was prepared−transmittance re-measured after the optical film is exposed to each condition of light fastness, heat resistance, and moisture resistance)/transmittance measured immediately after the optical film is prepared}×100
(§4) • ◯: ΔT 1.5% or less • Δ: ΔT more than 1.5% and 3% or less • X: ΔT more than 3%
(§5) The light fastness, heat resistance and moisture resistance were evaluated as ◯, Δ, and X based on whether the ΔT was 1.5% or less, more than 1.5% and 3% or less, or more than 3%, respectively.

[2] = Maximum absorption wavelength of the adhesive film (thin film), UV-vis; conditions: adhesive film 22 μm to 23 μm; UV-vis apparatus (Shimazu UV-3600)
From the text: as §1, §2
(§6) Experiments were performed under the same conditions as in Example 1, except that Compounds P3 to P10, Compound P15 and Comparative Compounds Z1 and Z2 were used instead of Compound P1, respectively, in Example 1, and the experimental results are shown in the following Table 1.

[3] = Wavelength compatibility (transmittance of sample in region with 450 nm or more); conditions: for Wavelength compatibility: transmittance of adhesive film sample in region with wavelength of 450 nm or more; for wavelength compatibility (in words): verbal assessment
Description: as §2
• ◯: transmittance of 90% or more in region with 450 nm or more • Δ: transmittance of 80% or more in region with 450 nm or more • X: transmittance of 80% or less in region with 450 nm or more
The wavelength compatibility was evaluated as ◯, Δ, and X based on whether the transmittance in a region with 450 nm or more was 90% or more, 80% or more, or 80% or less, respectively.

[4] = Maximum absorption wavelength of the adhesive composition (solution), UV-vis; conditions: adhesive composition in MEK; UV-vis apparatus (Shimazu UV-3600)
From the text: as §1, §2, §6

[5] = Heat resistance of adhesive film sample (change in transmittance ΔT); conditions: ΔT of transmittance for light of 390 to 450 nm, 80° C. for 500 hours
From the text: as §1, §2, §3, §4, §5

[6] = Light fastness of adhesive film sample (change in transmittance ΔT); conditions: ΔT of transmittance for light of 390 to 450 nm; adhesive film sample with 0.29 part by weight compound; 55,600 lx*48 hours
From the text: as §1, §2, §3, §4, §5

[7] = Solubility of compound in methyl ethyl ketone (MEK); conditions: solubility to 10 g of methyl ethyl ketone; 1 atm and room temperature
Description: as §2
• ◯: 0.3 wt. % or more • Δ: more than 0.1 wt. % and less than 0.3 wt. % • X: 0.1 wt. % or less

[8] = Solution-phase UV-Vis spectrum (FIG. 2), wavelength distribution; conditions: P3 compared with Comparative Compound Z2
From the text: FIG. 2 illustrates the solution-phase UV-Vis spectra of Compound P3 according to an exemplary embodiment of the present disclosure and Comparative Compound Z2 used in Comparative Example 2.
Since the compound according to an exemplary embodiment of the present disclosure may improve the light blocking efficiency or reduce the reflectance to external light by strongly absorbing light, the compound is excellent in wavelength compatibility in being included in an optical film. The wavelength compatibility can be confirmed by the wavelength distribution and the optimization appearing in the UV-Vis spectrum. For example, FIG. 2 illustrates the solution-phase UV-Vis spectra of Compound P3 according to an exemplary embodiment of the present disclosure and Comparative Compound Z2 used in Comparative Example 2. In FIG. 2, the dotted line is the solution-phase UV-Vis spectrum for Comparative Compound Z2, and the solid line is the solution-phase UV-Vis spectrum for Compound P3 according to an exemplary embodiment of the present disclosure.

SMILES: Cc1nn(-c2ccccc2)c(O)c1C=C1C(=O)NC(=O)NC1=O [Comparative Compound Z1, reference compound]
- Moisture resistance [1]: Δ (ΔT more than 1.5% and 3% or less)
- λmax (nm) (Thin film) [2]: 425 nm
- Wavelength compatibility [3]: Δ (transmittance of 80% or more in region with 450 nm or more)
- λmax (nm) (Solution) [4]: 412 nm

SMILES: CC1=NN(c2ccccc2)C(=O)/C1=C\c1c(C)nn(-c2ccccc2)c1O [Comparative Compound Z2, reference compound]
- Moisture resistance [1]: ∘
- λmax (nm) (Thin film) [2]: 403 nm
- Heat resistance [5]: ∘
- Light fastness [6]: ∘
- wavelength compatibility (in words) [3]: remarkably deteriorates compared to Examples 1 to 10
- λmax (nm) (Solution) [4]: 405 nm
- MEK solubility [7]: ∘

SMILES: Cc1nn(-c2ccccc2)c(O)c1C=C1C(=O)N(C2CCCCC2)C(=O)N(C2CCCCC2)C1=O [Compound P1]
- Moisture resistance [1]: ∘
- λmax (nm) (Thin film) [2]: 407 nm
- Heat resistance [5]: Δ (ΔT more than 1.5% and 3% or less)
- Light fastness [6]: Δ (ΔT more than 1.5% and 3% or less)
- Wavelength compatibility [3]: ∘
- λmax (nm) (Solution) [4]: 411 nm
- MEK solubility [7]: Δ (more than 0.1 wt. % and less than 0.3 wt. %)

SMILES: Cc1ccccc1-n1nc(C)c(C=C2C(=O)N(C3CCCCC3)C(=O)N(C3CCCCC3)C2=O)c1O [Compound P3]
- Moisture resistance [1]: ∘
- λmax (nm) (Thin film) [2]: 400 nm
- wavelength distribution in solution-phase UV-Vis spectrum [8]: narrower wavelength distribution than Comparative Compound Z2; also recorded: wavelength distribution narrower and more optimized than Comparative Compound Z2
- Heat resistance [5]: ∘
- Light fastness [6]: ∘
- Wavelength compatibility [3]: ∘
- wavelength compatibility (in words) [3]: excellent wavelength compatibility
- λmax (nm) (Solution) [4]: 404 nm
- MEK solubility [7]: ∘

SMILES: Cc1ccc(-n2nc(C)c(C=C3C(=O)N(C4CCCCC4)C(=O)N(C4CCCCC4)C3=O)c2O)c(C)c1 [Compound P4]
- Moisture resistance [1]: ∘
- λmax (nm) (Thin film) [2]: 399 nm
- Heat resistance [5]: ∘
- Light fastness [6]: ∘
- Wavelength compatibility [3]: ∘
- λmax (nm) (Solution) [4]: 403 nm
- MEK solubility [7]: ∘

SMILES: O=C1C(=Cc2c(-c3ccccc3)nn(-c3ccccc3)c2O)C(=O)N(C2CCCCC2)C(=O)N1C1CCCCC1 [Compound P5]
- Moisture resistance [1]: ∘
- λmax (nm) (Thin film) [2]: 406 nm
- Heat resistance [5]: ∘
- Light fastness [6]: Δ (ΔT more than 1.5% and 3% or less)
- Wavelength compatibility [3]: ∘
- λmax (nm) (Solution) [4]: 407 nm
- MEK solubility [7]: Δ (more than 0.1 wt. % and less than 0.3 wt. %)

SMILES: Cc1ccccc1-n1nc(-c2ccccc2)c(C=C2C(=O)N(C3CCCCC3)C(=O)N(C3CCCCC3)C2=O)c1O [Compound P6]
- Moisture resistance [1]: ∘
- λmax (nm) (Thin film) [2]: 400 nm
- Heat resistance [5]: Δ (ΔT more than 1.5% and 3% or less)
- Light fastness [6]: ∘
- Wavelength compatibility [3]: ∘
- λmax (nm) (Solution) [4]: 400 nm
- MEK solubility [7]: Δ (more than 0.1 wt. % and less than 0.3 wt. %)

SMILES: Cc1ccc(-n2nc(-c3ccccc3)c(C=C3C(=O)N(C4CCCCC4)C(=O)N(C4CCCCC4)C3=O)c2O)c(C)c1 [Compound P7]
- Moisture resistance [1]: ∘
- λmax (nm) (Thin film) [2]: 399 nm
- Heat resistance [5]: ∘
- Light fastness [6]: ∘
- Wavelength compatibility [3]: ∘
- λmax (nm) (Solution) [4]: 399 nm
- MEK solubility [7]: ∘

SMILES: CC(C)c1nn(-c2ccccc2)c(O)c1C=C1C(=O)N(C2CCCCC2)C(=O)N(C2CCCCC2)C1=O [Compound P8]
- Moisture resistance [1]: ∘
- λmax (nm) (Thin film) [2]: 408 nm
- Heat resistance [5]: Δ (ΔT more than 1.5% and 3% or less)
- Light fastness [6]: ∘
- Wavelength compatibility [3]: ∘
- λmax (nm) (Solution) [4]: 406 nm
- MEK solubility [7]: Δ (more than 0.1 wt. % and less than 0.3 wt. %)

SMILES: Cc1ccccc1-n1nc(C(C)C)c(C=C2C(=O)N(C3CCCCC3)C(=O)N(C3CCCCC3)C2=O)c1O [Compound P9]
- Moisture resistance [1]: ∘
- λmax (nm) (Thin film) [2]: 399 nm
- Heat resistance [5]: ∘
- Light fastness [6]: ∘
- Wavelength compatibility [3]: ∘
- λmax (nm) (Solution) [4]: 403 nm
- MEK solubility [7]: ∘

SMILES: Cc1ccc(-n2nc(C(C)C)c(C=C3C(=O)N(C4CCCCC4)C(=O)N(C4CCCCC4)C3=O)c2O)c(C)c1 [Compound P10]
- Moisture resistance [1]: ∘
- λmax (nm) (Thin film) [2]: 398 nm
- Heat resistance [5]: ∘
- Light fastness [6]: ∘
- Wavelength compatibility [3]: ∘
- λmax (nm) (Solution) [4]: 403 nm
- MEK solubility [7]: ∘

SMILES: Cc1ccccc1-n1nc(C(C)C)c(C=C2C(=O)N(c3ccccc3)C(=O)N(c3ccccc3)C2=O)c1O [Compound P15]
- Moisture resistance [1]: ∘
- λmax (nm) (Thin film) [2]: 398 nm
- Heat resistance [5]: ∘
- Light fastness [6]: ∘
- Wavelength compatibility [3]: ∘
- λmax (nm) (Solution) [4]: 402 nm
- MEK solubility [7]: Δ (more than 0.1 wt. % and less than 0.3 wt. %)
